ChEMBL document CHEMBL1201862, “PubChem BioAssay data set” (2004)
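The compound was tested at five concentrations on cells cultured in 96-well plates, with a 48-hour exposure period. The concentration for 50% growth inhibition is given as GI50.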 Calls of active or inactive are those of the source. Cut-off read from the data, not from the text of the source: active = GI50 up to about 1.1 µM and inactive = higher.

Columns and labels:
Assay in all cases: growth of human tumour cells (NCI), 48 h
[1] = system: SF-295
[2] = system: SR
[3] = system: MDA-N
[4] = system: SK-MEL-5
[5] = system: M14
[6] = system: T47D
[7] = system: SNB-75
[8] = system: RXF 393
[9] = system: OVCAR-4
[10] = system: CCRF-CEM
[11] = system: PC-3
[12] = system: COLO 205
[13] = system: Malme-3M
[14] = system: OVCAR-5
[15] = system: K562
[16] = system: RPMI-8226
[17] = system: NCI/ADR-RES
[18] = system: LOX IMVI
[19] = system: HCC 2998

Measured: GI50

COc1cc(C(c2cc(OC)c(OC)c(OC)c2)N2C(=O)CCC2C(=O)O)cc(OC)c1OC (stereo not drawn)
inactive: [1] > 100 µM | [2] > 100 µM | [3] > 100 µM | [4] > 100 µM | [5] > 100 µM | [6] > 100 µM | [7] > 100 µM | [8] > 100 µM | [9] > 100 µM | [10] > 100 µM | [11] > 100 µM | [12] > 100 µM | [13] > 100 µM | [14] > 100 µM | [15] > 100 µM | [16] > 100 µM | [17] > 100 µM

CC1(C)SC2C(NC(=O)Cc3ccccc3)C(=O)N2C1C(=O)O (stereo not drawn)
inactive: [1] > 100 µM | [2] > 100 µM | [3] > 100 µM | [4] > 100 µM | [18] > 100 µM | [5] > 100 µM | [6] > 100 µM | [7] > 100 µM | [8] > 100 µM | [9] > 100 µM | [11] > 100 µM | [12] 65.6 µM | [13] > 100 µM | [14] > 100 µM | [15] > 100 µM | [17] > 100 µM

O=C1CC2[C@@H](N3CCCC3)CCC(N1Cc1ccccc1)C2(O)O (stereo partly drawn)
inactive: [1] > 100 µM | [2] > 100 µM | [19] > 100 µM | [3] > 100 µM | [4] > 100 µM | [18] > 100 µM | [5] > 100 µM | [6] > 100 µM | [8] > 100 µM | [9] > 10 µM | [10] > 100 µM | [11] > 100 µM | [12] > 100 µM | [13] > 100 µM | [14] > 100 µM | [15] > 100 µM | [17] > 100 µM

CCC12CC(c3ccccc3)C(C(=O)N1)C(=O)N2 (stereo not drawn)
inactive: [1] > 100 µM | [2] > 100 µM | [3] > 100 µM | [4] > 100 µM | [5] > 100 µM | [6] > 100 µM | [7] 65.3 µM | [8] > 100 µM | [9] > 100 µM | [10] > 100 µM | [11] > 100 µM | [12] > 100 µM | [13] > 100 µM | [14] > 100 µM | [15] > 100 µM | [16] > 100 µM | [17] > 100 µM

COc1ccc(Cc2cc(Cc3ccc(OC)cc3)cc(Cc3ccc(OC)cc3)c2)cc1
inactive: [1] > 100 µM | [2] 89.5 µM | [19] > 100 µM | [3] 6.58 µM | [18] > 100 µM | [5] > 100 µM | [6] > 100 µM | [7] > 100 µM | [9] > 100 µM | [11] > 100 µM | [13] 56.8 µM | [14] > 100 µM | [15] > 100 µM | [16] > 100 µM | [17] > 100 µM

Cc1cc2nn(C3CCCCO3)nc2cc1C (stereo not drawn)
inactive: [1] > 100 µM | [2] > 100 µM | [19] > 100 µM | [3] > 100 µM | [4] > 100 µM | [5] > 100 µM | [6] > 100 µM | [7] > 100 µM | [8] > 100 µM | [9] > 100 µM | [10] > 100 µM | [11] > 100 µM | [12] > 100 µM | [13] > 100 µM | [14] > 100 µM | [15] > 100 µM | [17] > 100 µM

Cc1ccc(NC(=O)c2ccccc2C(=O)O)cc1C
inactive: [1] > 100 µM | [2] > 100 µM | [3] > 100 µM | [4] > 100 µM | [18] > 100 µM | [5] > 100 µM | [6] > 100 µM | [7] > 100 µM | [8] > 100 µM | [9] > 100 µM | [11] > 100 µM | [12] > 100 µM | [13] > 100 µM | [14] > 100 µM | [15] > 100 µM | [16] > 100 µM | [17] > 100 µM

COC(=O)C1OC(SCCN)C(O)C(O)C1O (stereo not drawn)
inactive: [1] > 100 µM | [2] > 100 µM | [3] > 100 µM | [4] > 100 µM | [18] > 100 µM | [5] > 100 µM | [6] > 100 µM | [7] > 100 µM | [8] > 100 µM | [9] > 100 µM | [10] > 100 µM | [11] > 100 µM | [12] > 100 µM | [13] > 100 µM | [14] > 100 µM | [15] > 100 µM | [16] > 100 µM | [17] > 100 µM

NCCCNCCCCN1CCOC1=O
inactive: [1] > 100 µM | [2] > 100 µM | [19] > 100 µM | [3] > 100 µM | [4] > 100 µM | [18] > 100 µM | [5] > 100 µM | [6] > 100 µM | [7] > 100 µM | [10] > 100 µM | [11] > 100 µM | [12] > 100 µM | [13] > 100 µM | [14] > 100 µM | [15] > 100 µM | [16] > 100 µM | [17] > 100 µM

CCOC1Oc2ccccc2-c2nc(SC)ncc21 (stereo not drawn)
inactive: [1] > 100 µM | [2] 87.1 µM | [3] 64.1 µM | [4] 52.5 µM | [18] 80.7 µM | [5] > 100 µM | [6] 27.4 µM | [7] > 100 µM | [8] > 100 µM | [9] > 100 µM | [10] > 100 µM | [11] > 100 µM | [12] > 100 µM | [14] > 100 µM | [16] 70 µM | [17] 82.8 µM

O=C(O)C1SCCS1
inactive: [1] > 100 µM | [2] > 100 µM | [19] > 100 µM | [3] > 100 µM | [4] > 100 µM | [18] > 100 µM | [5] > 100 µM | [6] > 100 µM | [7] > 100 µM | [9] 31.8 µM | [10] > 100 µM | [11] > 100 µM | [12] > 100 µM | [13] > 100 µM | [14] > 100 µM | [15] > 100 µM | [16] > 100 µM | [17] > 100 µM

Cc1ccccc1/N=C/N(C)C
inactive: [1] 39.5 µM | [2] 11.4 µM | [3] 37.5 µM | [4] 17.2 µM | [18] 23.8 µM | [5] 99.3 µM | [6] 34 µM | [7] 44.9 µM | [8] 50.4 µM | [9] 37.5 µM | [10] 23.2 µM | [11] 26.7 µM | [12] 39.6 µM | [13] 43.9 µM | [14] 72.8 µM | [15] 14.1 µM | [16] 13.3 µM | [17] > 100 µM
